For 36 molecules, IC50 and IC90 results are on record in ChEMBL document CHEMBL4483862, “Open-source discovery of chemical leads for next-generation chemoprotective antimalarials” (2018).

The test system of the experiment is Plasmodium berghei. Nature of the experiment: Luciferase/luciferin-expressing antifolate-resistant parasites were used to infect a culture of HepG2 cells that were pre-incubated with compounds. Infected hepatocytes emit light due to the luciferase reaction. Assay results are presented as the percent inhibition of light emission compared to control. […]. The conditions noted are these: sporozoite; for IC90: read-out: LUCIFERASE INFECTION ASSAY - IC90. It is filed as functional.

Where [1] appears, read: PBLUC_HILL_SLOPE 1.24, PBLUC_R_SQUARED 0.639, read-out: LUCIFERASE INFECTION ASSAY - IC50.

Each structure is given as a SMILES string.

For orientation: IC50 means the point on the concentration scale where inhibition reaches its midpoint. As usually defined, the IC90 is the concentration needed for an effect of 90%. `Cc1cc(C(=O)Nc2ccc(Cl)cc2)c(C)n1-c1ccccc1`: the IC90 came to 0.729 µM. The IC50 (PBLUC_HILL_SLOPE 1.26, PBLUC_R_SQUARED 0.88, read-out: LUCIFERASE INFECTION ASSAY - IC50) was determined as 0.128 µM.

As for `C=CCn1c(C)cc(C(=O)CSc2ccc(NC(C)=O)cc2)c1C`, the IC90 amounted to 2.85 µM. Besides, the concentration for half-maximal inhibition (IC50) (PBLUC_HILL_SLOPE 1.26, 1.79, PBLUC_R_SQUARED 0.402, 0.760, read-out: LUCIFERASE INFECTION ASSAY - IC50) amounted to 1.34 µM.

Regarding `O=C(COc1ccc(F)cc1)N1CCC(Cc2ccccc2)CC1`, the IC90 is over 10.1 µM. Besides, where the note is “PBLUC_HILL_SLOPE 1.27, PBLUC_R_SQUARED 0.405, read-out: LUCIFERASE INFECTION ASSAY - IC50”, the IC50 turned out to be 4.23 µM.

In the case of `CC1CN(C(=O)c2ccc(S(=O)(=O)Nc3ccccc3F)cc2)CC(C)O1` (configuration not stated), the 90% effect concentration (IC90) amounted to 5.97 µM. Further, the IC50 (PBLUC_HILL_SLOPE 1.2, PBLUC_R_SQUARED 0.687, read-out: LUCIFERASE INFECTION ASSAY - IC50) is 0.955 µM.

On to `CSc1nc(N2CCNCC2)c2sc3c(c2n1)CCCC3`, for which the concentration for an effect of 90% (IC90) is over 10.3 µM. The IC50 (PBLUC_HILL_SLOPE 1.21, PBLUC_R_SQUARED 0.0625, read-out: LUCIFERASE INFECTION ASSAY - IC50) is over 10.3 µM.

`CS(=O)(=O)c1nc2ccccc2n1Cc1cc(=O)n2ccccc2n1`: the concentration for an effect of 90% (IC90) was over 10 µM. Also, the IC50 (PBLUC_HILL_SLOPE 1.24, PBLUC_R_SQUARED 0.679, read-out: LUCIFERASE INFECTION ASSAY - IC50) was 5.51 µM.

Consider `CNc1nc2cnc(Nc3ccc(C(F)(F)F)cc3)cc2n1CC1CC1`, for which the IC90 was over 10 µM. Besides, the IC50 (PBLUC_HILL_SLOPE 1.2, PBLUC_R_SQUARED 0.377, read-out: LUCIFERASE INFECTION ASSAY - IC50) came out at 2.12 µM.

Turning to `COc1cc2c(cc1OCC(=O)Nc1ccccc1Cl)C=CC(C)(C)O2`, the 90% effect concentration (IC90) is over 8.83 µM. In addition, the IC50 (PBLUC_HILL_SLOPE 1.25, PBLUC_R_SQUARED 0.511, read-out: LUCIFERASE INFECTION ASSAY - IC50) was 4.17 µM.

`CN1/C(=C/C=C2c3ccccc3-c3ccccc32)C=Cc2ccccc21`: the IC90 is over 9.9 µM. In addition, the IC50 (PBLUC_HILL_SLOPE 1.22, PBLUC_R_SQUARED 0.219, read-out: LUCIFERASE INFECTION ASSAY - IC50) worked out at 8.03 µM.

Take `CCC(C)c1ccc(S(=O)(=O)N(Cc2ccc(C(=O)NC3CC3)cc2)C2CC2)cc1` (configuration not stated): the IC90 is 2.3 µM. Also, where the note is “PBLUC_HILL_SLOPE 1.25, PBLUC_R_SQUARED 0.781, read-out: LUCIFERASE INFECTION ASSAY - IC50”, the IC50 came to 0.394 µM.

For `COc1cc(-c2nc3ccc(NC(=O)c4cccnc4)cn3n2)cc(OC)c1OC`, the 90% effect concentration (IC90) was over 10 µM. For the same molecule, under “PBLUC_HILL_SLOPE 1.26, PBLUC_R_SQUARED 0.59, read-out: LUCIFERASE INFECTION ASSAY - IC50”, the half-inhibitory concentration (IC50) stood at 6.96 µM.

For the molecule `COc1ccc(-c2cc(NC(=O)C3CCN(C(=O)C(C)C)CC3)ccc2OC(F)F)cc1`, the concentration for an effect of 90% (IC90) is over 10 µM. For the same molecule, the IC50 (PBLUC_HILL_SLOPE 1.23, PBLUC_R_SQUARED 0.265, read-out: LUCIFERASE INFECTION ASSAY - IC50) was 3.95 µM.

For `O=C(O)C1C2C=CC(O2)C1C(=O)Nc1ccc(OC(F)(F)F)cc1` (configuration not stated), the IC90 is over 9.61 µM. The half-inhibitory concentration (IC50) (PBLUC_HILL_SLOPE 1.22, PBLUC_R_SQUARED 0.106, read-out: LUCIFERASE INFECTION ASSAY - IC50) was over 9.61 µM.

As to `Cc1ccc(S(=O)(=O)N(Cc2ccc(C(=O)NC3CC3)cc2)C2CC2)c(C)c1`, the concentration for an effect of 90% (IC90) is 0.498 µM. The IC50 (PBLUC_HILL_SLOPE 1.22, PBLUC_R_SQUARED 0.762, read-out: LUCIFERASE INFECTION ASSAY - IC50) amounted to 0.0818 µM.

With `CSc1sc(C(=O)N/N=C/c2ccccc2)c2c1C1(CCC2)SCCS1`, the IC90 was over 7.85 µM. Also, the IC50 (PBLUC_HILL_SLOPE 1.27, PBLUC_R_SQUARED 0.257, read-out: LUCIFERASE INFECTION ASSAY - IC50) is 5.56 µM.

As for `O=C1C2=C(Nc3ccccc3SC2c2ccccc2F)c2ccccc21` (configuration not stated), the IC90 worked out at 2.61 µM. Further, the half-inhibitory concentration (IC50) (PBLUC_HILL_SLOPE 1.25, PBLUC_R_SQUARED 0.725, read-out: LUCIFERASE INFECTION ASSAY - IC50) came to 0.454 µM.

With `COc1ccc(-c2nc(C(=O)Nc3ccccc3N3CCN(C)CC3)cs2)cc1OC`, the concentration for an effect of 90% (IC90) was over 10 µM. Besides, under setting [1], the IC50 was 2.33 µM.

Regarding `c1ccc(CCCNc2nnnn2-c2ccccc2)cc1`, the 90% effect concentration (IC90) was over 10 µM. In addition, the IC50 (PBLUC_HILL_SLOPE 1.25, PBLUC_R_SQUARED 0.199, read-out: LUCIFERASE INFECTION ASSAY - IC50) was 6.08 µM.

Take `COc1ccccc1-c1cc(C(=O)NCC(C)c2ccccc2)no1` (configuration not stated): the IC90 was over 10 µM. Where the note is “PBLUC_HILL_SLOPE 1.24, PBLUC_R_SQUARED 0.652, read-out: LUCIFERASE INFECTION ASSAY - IC50”, the IC50 came to 3.42 µM.

Consider `Cc1ccc(Cn2ccs/c2=N/C(=O)c2cc3c(s2)CCCCC3)cc1`, for which the IC90 was 0.491 µM. Besides, under “PBLUC_HILL_SLOPE 1.2, PBLUC_R_SQUARED 0.823, read-out: LUCIFERASE INFECTION ASSAY - IC50”, the 50% inhibitory concentration (IC50) came out at 0.0784 µM.

`Cc1oc(-c2ccc(Cl)cc2)cc1C(=O)Nc1cc(-c2cc(C(C)(C)C)oc2C)nn1-c1cc(C(F)(F)F)cc(C(F)(F)F)c1`: the IC90 is over 5.08 µM. Besides, the half-inhibitory concentration (IC50) (PBLUC_HILL_SLOPE 1.26, PBLUC_R_SQUARED 0.137, read-out: LUCIFERASE INFECTION ASSAY - IC50) is over 5.08 µM.

Regarding `CCc1ccc(S(=O)(=O)Nc2cc(Sc3ccc(C)cc3)c(O)c3ccccc23)cc1`, the IC90 is over 10 µM. Also, under “PBLUC_HILL_SLOPE 1.24, PBLUC_R_SQUARED 0.466, read-out: LUCIFERASE INFECTION ASSAY - IC50”, the half-inhibitory concentration (IC50) was found to be 5.98 µM.

For the molecule `CCc1ccccc1Nc1nc(N)nc(CN2CCc3ccccc32)n1`, the IC90 was over 10 µM. Also, the half-maximal inhibitory concentration (IC50) (PBLUC_HILL_SLOPE 1.23, PBLUC_R_SQUARED 0.247, read-out: LUCIFERASE INFECTION ASSAY - IC50) turned out to be 5.31 µM.

Turning to `O=C(NC12CC3CC(CC(C3)C1)C2)c1ccc(=O)n(Cc2ccccc2)n1`, the concentration for an effect of 90% (IC90) is over 10 µM. Besides, the IC50 (PBLUC_HILL_SLOPE 1.2, PBLUC_R_SQUARED 0.803, read-out: LUCIFERASE INFECTION ASSAY - IC50) is 5.96 µM.

Turning to `NC(=O)c1ccc(CN(C2CC2)S(=O)(=O)c2ccc3c(c2)CCC3)cc1`, the IC90 was over 10 µM. In addition, for the setting “PBLUC_HILL_SLOPE 1.27, PBLUC_R_SQUARED 0.0564, read-out: LUCIFERASE INFECTION ASSAY - IC50”, the half-maximal inhibitory concentration (IC50) was over 10 µM.

As to `CC(C)(C)c1ccc(NC(=O)c2cc(-c3ccccc3)ncn2)cc1`, the IC90 is over 9.96 µM. Moreover, the IC50 (PBLUC_HILL_SLOPE 1.26, PBLUC_R_SQUARED 0.612, read-out: LUCIFERASE INFECTION ASSAY - IC50) was found to be 2.29 µM.

Regarding `CC(=O)N(c1nc(/C=C/C(=O)c2cccc(Br)c2)cs1)c1ccc(F)cc1F`, the IC90 was over 10 µM. Also, the concentration for half-maximal inhibition (IC50) (PBLUC_HILL_SLOPE 1.24, PBLUC_R_SQUARED 0.477, read-out: LUCIFERASE INFECTION ASSAY - IC50) is 8.87 µM.

With `c1ccc(-c2nn(-c3ccccc3)cc2CSc2nncs2)cc1`, the 90% effect concentration (IC90) was over 10 µM. Under setting [1], the half-maximal inhibitory concentration (IC50) worked out at 5.72 µM.

Consider `O=C(Nc1ccccc1)Nc1ccc2cc(C(=O)c3ccccc3O)cnc2c1`, for which the 90% effect concentration (IC90) came to 4.81 µM. The 50% inhibitory concentration (IC50) (PBLUC_HILL_SLOPE 1.23, 8.91, PBLUC_R_SQUARED 0.971, 0.189, read-out: LUCIFERASE INFECTION ASSAY - IC50) was 3.52 µM.

For `O=C(Nc1ccc(N2CCCCC2)c(C(F)(F)F)c1)c1ccc(-n2nncc2-c2ccc(Cl)cc2)cc1`, the IC90 is over 10 µM. In addition, under “PBLUC_HILL_SLOPE 1.22, PBLUC_R_SQUARED 0.481, read-out: LUCIFERASE INFECTION ASSAY - IC50”, the half-inhibitory concentration (IC50) was determined as 4.69 µM.

For the molecule `Cc1ccc(CSCCNC(=O)c2ccc3c[nH]nc3c2)cc1`, the concentration for an effect of 90% (IC90) was over 10 µM. In addition, the IC50 (PBLUC_HILL_SLOPE 1.22, PBLUC_R_SQUARED 0.508, read-out: LUCIFERASE INFECTION ASSAY - IC50) is 4.61 µM.

For `Cc1cccc(Cn2nc(C(C)(C)C)cc2C(=O)Nc2cccc(OC(F)(F)F)c2)c1`, the concentration for an effect of 90% (IC90) is over 7.65 µM. Besides, the half-maximal inhibitory concentration (IC50) (PBLUC_HILL_SLOPE 1.23, PBLUC_R_SQUARED 0.161, read-out: LUCIFERASE INFECTION ASSAY - IC50) was over 7.65 µM.

Regarding `Cc1cc2c(cc1C)NC(c1ccc(Br)cc1)C1C(=O)CCCC1=N2` (configuration not stated), the IC90 is over 8.31 µM. Also, the IC50 (PBLUC_HILL_SLOPE 1.27, PBLUC_R_SQUARED 0.271, read-out: LUCIFERASE INFECTION ASSAY - IC50) is 6.95 µM.

As to `Cc1ccc(-n2cccc2)c(NC(=O)c2c(-c3c(Cl)cccc3Cl)noc2C)c1`, the 90% effect concentration (IC90) is over 7.74 µM. Besides, the IC50 (PBLUC_HILL_SLOPE 1.2, PBLUC_R_SQUARED 0.354, read-out: LUCIFERASE INFECTION ASSAY - IC50) was 4.14 µM.

As to `COc1ccccc1CNC(=O)N/C=C/c1ccccc1Cl`, the IC90 is over 10.4 µM. In addition, the IC50 (PBLUC_HILL_SLOPE 1.23, PBLUC_R_SQUARED 0.697, read-out: LUCIFERASE INFECTION ASSAY - IC50) is 5.38 µM.

As for `Cc1ccc(-c2noc(-c3csc([C@@H]4C[C@H](O)[C@@H](CO)O4)n3)n2)cc1`, the IC90 is over 9.18 µM. Further, where the note is “PBLUC_HILL_SLOPE 1.21, PBLUC_R_SQUARED 0.165, read-out: LUCIFERASE INFECTION ASSAY - IC50”, the IC50 is 3.59 µM.
